Consider three compounds from paper PMC9917443 (eLife, 2023).

In assay [1] the test system is mEPSCs in brain slices / cultured hippocampal neurons. The settings on record: cultured hippocampal neurons APP17 250 nM, ref Rice et al., 2019; cited from earlier work. The source says:
GBRs are composed of a GB1a or GB1b subunit with a GB2 subunit, which generates heterodimeric GB1a/2 and GB1b/2 receptors ([Pin and Bettler, 2016]). GB1a differs from GB1b by the presence of two N-terminal sushi domains (SD1/2). GB1a/2 and GB1b/2 receptors predominantly localize to pre- and postsynaptic sites, respectively ([Vigot et al., 2006]). APP and sAPP bind to SD1 of GB1a ([Schwenk et al., 2016]; [Dinamarca et al., 2019]; [Rice et al., 2019]). Synthetic APP peptides of 9 or 17 amino acid residues, termed APP9 and APP17, are sufficient for binding and inducing a stable conformation in SD ... || GB1a/2 receptors are abundant at axon terminals where they inhibit neurotransmitter release ([Vigot et al., 2006]). […] A GBR antagonist blocked the effect of APP17 on the mEPSC frequency, supporting a GBR-dependent mechanism.

Assay [2] deals with native GBRs in mouse brain membranes. Description: [^35S]GTPγS binding in brain membrane preparations.
In assay [3] the test system is GBR-activated K^+ currents in cultured hippocampal neurons. Nature of the assay: K^+ currents in cultured hippocampal neurons (patch-clamp). It is filed as cell-based, mouse. The settings on record: 5 µM, -70 mV. The method, then: APP17 signaling through native GBRs may depend on protein-protein interactions that are not preserved in the membrane preparations used for the [^35S]GTPγS binding assay. Therefore, we tested whether APP17 influences GBR-mediated Gβγ signaling to K^+ channels in cultured hippocampal neurons using patch-clamp electrophysiology, which preserves the native environment of receptors ([Schuler et al., 2001]; [Vigot et al., 2006]). […] . Neuronal cultures and HEK293T cells were prepared as described ([Dinamarca et al., 2019]). Coverslips with hippocampal neurons (DIV 12–15) or HEK293T cells were transferred to a chamber containing a low-K^+ bath solution (in mM): 145 NaCl, 4 KCl, 5 HEPES, 5.5 D-glucose, 1 MgCl2, and 1.8 CaCl2 (pH 7.4 adjusted with NaOH). Recordings were performed at room temperature using borosilicate pipettes of 3–5 MΩ resistance tips, filled with K-gluconate-based pipette solution (in mM): 150 K-gluconate, 1.1 EGTA, 10 HEPES, 10 Tris-phosphocreatine, 0.3 NaGTP, and 4 MgATP (pH 7.2 adjusted with KOH). Upon achieving whole-cell access, cells were held in voltage-clamp mode at −70 mV (with no correction for liquid junction potential) and baclofen-induced K^+ currents were induced in a high-K^+ bath solution (in mM): 120 NaCl, 25 KCl, 5 HEPES, 5.5 D-glucose, 1 MgCl2, and 1.8 CaCl2 (pH 7.4 adjusted with NaOH). […] Schaffer collaterals were stimulated at 0.1 Hz with brief current pulses via bipolar Pt/Ir wires. Evoked EPSCs were recorded at –60 mV with a Cs^+-based intracellular solution. Baclofen and peptides were bath applied in standard ACSF at room temperature. We recorded mEPSCs in primary neuronal cultures established from embryonic (E15–17) murine hippocampus at DIV13–16 in the presence of 0.5 μM TTX at room temperature ([Dinamarca et al., 2019]). APP17 (250 nM) and (R)-baclofen (30 μM) were applied via superfusion. Template matching with pClamp 10 software (Molecular Devices) was used to detect individual mEPSCs.

In assay [4] the test system is mEPSCs of cultured hippocampal neurons. Description: mEPSC frequency in cultured hippocampal neurons. It is filed as cell-based, mouse. The settings on record: baclofen 30 µM, after APP17, 0.5 μM TTX. The method, then: (§1) GB1a/2 receptors are abundant at axon terminals where they inhibit neurotransmitter release ([Vigot et al., 2006]). […] A GBR antagonist blocked the effect of APP17 on the mEPSC frequency, supporting a GBR-dependent mechanism. […] We additionally studied whether APP17 at 250 nM influences eEPSC amplitudes in acute hippocampal slices. Postsynaptic GBR-activated K^+ currents were blocked with a Cs^+-based intracellular solution, which allowed to specifically monitor the activity of presynaptic GBRs.
(§2) Neuronal cultures and HEK293T cells were prepared as described ([Dinamarca et al., 2019]). Coverslips with hippocampal neurons (DIV 12–15) or HEK293T cells were transferred to a chamber containing a low-K^+ bath solution (in mM): 145 NaCl, 4 KCl, 5 HEPES, 5.5 D-glucose, 1 MgCl2, and 1.8 CaCl2 (pH 7.4 adjusted with NaOH). Recordings were performed at room temperature using borosilicate pipettes of 3–5 MΩ resistance tips, filled with K-gluconate-based pipette solution (in mM): 150 K-gluconate, 1.1 EGTA, 10 HEPES, 10 Tris-phosphocreatine, 0.3 NaGTP, and 4 MgATP (pH 7.2 adjusted with KOH). […] Evoked EPSCs were recorded at –60 mV with a Cs^+-based intracellular solution. […] We recorded mEPSCs in primary neuronal cultures established from embryonic (E15–17) murine hippocampus at DIV13–16 in the presence of 0.5 μM TTX at room temperature ([Dinamarca et al., 2019]). […]

The test system of assay [5] is eEPSCs of CA1 pyramidal neurons. Nature of the assay: eEPSC amplitudes in CA1 pyramidal neurons of acute hippocampal slices. The arrangement: species or system mouse. Particulars: APP17 250 nM or baclofen 20 µM, Cs^+-based intracellular solution. The method, then: as §1, §2
The subject of assay [6] is spontaneous neuronal activity in the auditory cortex. Description: two-photon Ca^2+ imaging of auditory cortex in anesthetized mice. Particulars: 5 µM perfused over cortex; peptides 60 min, baclofen 15 min.
The mark [7] stands for this setting: 1 μM APP17, best-fit, different curve for each data set.
The mark [8] stands for this setting: Global (shared) fit, Vehicle and 1 μM APP17, one curve for all data sets.
[9] abbreviates: Vehicle, best-fit, different curve for each data set.

Consider `C[C@H](NC[C@H](O)CP(=O)(O)Cc1ccccc1)c1ccc(Cl)c(Cl)c1` [CGP55845], for which, in assay [1], the “mEPSC frequency (in words)” value was “reduced the inhibitory effect of APP17 on the mEPSC frequency”.

Consider `NCCCC(=O)O` [GABA], for which, in assay [2] (setting [7]), the Bottom is 0.9821, the HillSlope is on record as 0.6558, the Span stood at 0.4027 and the Top stood at 1.385. Besides, in assay [2] (GABA curve fit, vehicle, n=9), the Basal came to 0.99. Further, the EMax in assay [2] (GABA, vehicle, n=9) is given as 1.37. In assay [2] (setting [8]), this compound came in with a Bottom of 0.9874, a HillSlope of 0.6587, a Span of 0.3874 and a Top of 1.375. For the same compound, in assay [2] (setting [9]), the Bottom is listed as 0.9919, the HillSlope was 0.6543, the Span is given as 0.3771 and the Top is listed as 1.369.

Consider `NCC(CC(=O)O)c1ccc(Cl)cc1` (stereo not shown) [baclofen], for which the “K^+ currents evoked by compound alone (in words)” value in assay [3] was “activation of K^+ channels by Gβγ”. The “mEPSC frequency (in words)” value in assay [4] was “significantly reduced mEPSC frequency”. Besides, in assay [5], the “eEPSC amplitude (in words)” value is “able to reduce the amplitudes of eEPSCs”. In assay [6], the “spontaneous Ca^2+ transients (in words)” value is reported as “reduced spontaneous Ca^2+ transients after 15 min of perfusion”.
